Test results taken from patent publication US12570662B2, “Substituted pyrrolo[1,2-b]pyridazines as bifunctional degraders of interleukin-1 receptor-associated kinases” (Nurix Therapeutics, Inc., priority 2021, dated 2026).

Biological target: T1, IRAK4 (Homo sapiens, UniProt Q9NWZ3)
T1 construct: C-terminal HiBiT-tagged Jurkat cells (polyclonal cell line or clone 8D5); endogenous in cells; host or cells: Jurkat cells (polyclonal cell line or clone 8D5), HiBiT-tagged
T1 sequence (Q9NWZ3 1-460): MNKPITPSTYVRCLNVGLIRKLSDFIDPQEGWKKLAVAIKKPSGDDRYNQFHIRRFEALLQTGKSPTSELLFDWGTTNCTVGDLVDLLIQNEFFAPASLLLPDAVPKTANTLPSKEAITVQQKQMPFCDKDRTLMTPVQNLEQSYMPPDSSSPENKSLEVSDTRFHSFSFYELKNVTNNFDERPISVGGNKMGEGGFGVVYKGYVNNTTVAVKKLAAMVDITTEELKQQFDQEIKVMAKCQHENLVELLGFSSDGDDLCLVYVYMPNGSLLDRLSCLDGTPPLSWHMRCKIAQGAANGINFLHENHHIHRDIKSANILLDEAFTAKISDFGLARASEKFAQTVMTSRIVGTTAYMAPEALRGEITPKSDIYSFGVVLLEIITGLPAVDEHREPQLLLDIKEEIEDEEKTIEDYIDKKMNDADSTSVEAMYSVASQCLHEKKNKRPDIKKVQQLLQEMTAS
Test: IRAK4 Degradation HiBit Assay
Format: cell-based
Settings: C-terminal HiBiT-tagged Jurkat cells, 4 hrs incubation; for DC50: % IRAK4 remaining, four-parameter fit (IC50 used as DC50); for Dmax: from fit of % IRAK4 remaining, read-out: Dmax
Method in brief: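 Degradation was quantified by luminescence after adding lytic detection reagent containing LgBiT to HiBiT-tagged Jurkat cells (polyclonal or clone 8D5). Cells were treated 4 h at 32 °C across 11 concentrations from 10 μM to 0.1 nM final. Four-parameter curve fitting of % IRAK4 remaining versus DMSO gave DC50 and Dmax.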

| SMILES | DC50 [nM] | Dmax [%] |
| --- | --- | --- |
| N#Cc1cnn2c(-c3cc(N[C@H]4CCOC4)c(-c4nnc(N5CCN(CC6CCN(c7ccc([C@H]8CCC(=O)NC8=O)cn7)CC6)CC5)s4)cn3)ccc2c1 (mixture of isomers) [Example 93, 7-[5-(5-{4-[(1-{5-[(3RS)-2,6-dioxopiperidin-3-yl]pyridin-2-yl}piperidin-4-yl)methyl]piperazin-1-yl}-1,3,4-thiadiazol-2-yl)-4-{[(3R)-oxolan-3-yl]amino}pyridin-2-yl]pyrrolo[1,2-b]pyridazine-3-carbonitrile] | 16 | 115 |
| N#Cc1cnn2c(-c3cc(N[C@@H]4CCOC4)c(-c4nnc(N5CC6CCC(C5)N6CC5CCN(c6ccc([C@@H]7CCC(=O)NC7=O)cn6)CC5)s4)cn3)ccc2c1 (single isomer, unassigned) [Example 124] | 8 | 110 |
| CC(C)Nc1cc(-c2ccc3cc(C#N)cnn23)ncc1-c1nnc(N2CCN(CC3CCN(c4ccc(N5CCC(=O)NC5=O)cn4)CC3)CC2)s1 [Example 65, 7-(5-{5-[4-({1-[5-(2,4-dioxo-1,3-diazinan-1-yl)pyridin-2-yl]piperidin-4-yl}methyl)piperazin-1-yl]-1,3,4-thiadiazol-2-yl}-4-[(propan-2-yl)amino]pyridin-2-yl)pyrrolo[1,2-b]pyridazine-3-carbonitrile] | 43 | 110 |
| N#CCNc1cc(-c2ccc3cc(C#N)cnn23)ncc1-c1nnc(N2CCN(CC3CCN(c4ccc(C5CCC(=O)NC5=O)cn4)CC3)CC2)s1 (racemic) [Example 59, rac-7-{4-[(cyanomethyl)amino]-5-(5-{4-[(1-{5-[(3R)-2,6-dioxopiperidin-3-yl]pyridin-2-yl}piperidin-4-yl)methyl]piperazin-1-yl}-1,3,4-thiadiazol-2-yl)pyridin-2-yl}pyrrolo[1,2-b]pyridazine-3-carbonitrile] | 7 | 120 |
| N#Cc1cnn2c(-c3cc(NC4CCOCC4)c(-c4nnc(N5CC6CCC(C5)N6CC5CCN(c6ccc(N7CCC(=O)NC7=O)cc6)CC5)s4)cn3)ccc2c1 [Example 84, 7-(5-{5-[8-({1-[4-(2,4-dioxo-1,3-diazinan-1-yl)phenyl]piperidin-4-yl}methyl)-3,8-diazabicyclo[3.2.1]octan-3-yl]-1,3,4-thiadiazol-2-yl}-4-[(oxan-4-yl)amino]pyridin-2-yl)pyrrolo[1,2-b]pyridazine-3-carbonitrile] | 24 | 77 |
| N#Cc1cnn2c(-c3cc(N[C@H]4CCOC4)c(-c4nnc(N5CCN(CC6CCN(c7ccc(C8CCC(=O)NC8=O)cn7)CC6)CC5)s4)cn3)ccc2c1 (mixture of isomers) [Example 92, 7-[5-(5-{4-[(1-{5-[(3RS)-2,6-dioxopiperidin-3-yl]pyridin-2-yl}piperidin-4-yl)methyl]piperazin-1-yl}-1,3,4-thiadiazol-2-yl)-4-{[(3S)-oxolan-3-yl]amino}pyridin-2-yl]pyrrolo[1,2-b]pyridazine-3-carbonitrile] | 24 | 114 |
| N#Cc1cnn2c(-c3cc(NC4CCOCC4)c(-c4nnc(N5CCN(CC6CCN(c7ccc(N8CCC(=O)NC8=O)cc7)C6)CC5)s4)cn3)ccc2c1 (racemic) [Example 91, rac-7-{5-[5-(4-{[(3R)-1-[4-(2,4-dioxo-1,3-diazinan-1-yl)phenyl]pyrrolidin-3-yl]methyl}piperazin-1-yl)-1,3,4-thiadiazol-2-yl]-4-[(oxan-4-yl)amino]pyridin-2-yl}pyrrolo[1,2-b]pyridazine-3-carbonitrile] | 97 | 32 |
| CNc1cc(-c2ccc3cc(C#N)cnn23)ncc1-c1nnc(C2CCC(C(=O)N3CCN(c4ccc([C@@H]5CCC(=O)NC5=O)cc4)CC3)CC2)s1 (mixture of isomers) [Example 32, 7-[4-(methylamino)-5-{5-[(1rs&,4rs&)-4-(4-{4-[(3RS)-2,6-dioxopiperidin-3-yl]phenyl}piperazine-1-carbonyl)cyclohexyl]-1,3,4-thiadiazol-2-yl}pyridin-2-yl]pyrrolo[1,2-b]pyridazine-3-carbonitrile] | 10 | 54 |
| C[C@H](C#N)Nc1cc(-c2ccc3cc(C#N)cnn23)ncc1-c1nnc(N2CCN(CC3CCN(c4ccc(C5CCC(=O)NC5=O)cn4)CC3)CC2)s1 (mixture of isomers) [Example 75, 7-(4-{[(1R)-1-cyanoethyl]amino}-5-(5-{4-[(1-{5-[(3RS)-2,6-dioxopiperidin-3-yl]pyridin-2-yl}piperidin-4-yl)methyl]piperazin-1-yl}-1,3,4-thiadiazol-2-yl)pyridin-2-yl)pyrrolo[1,2-b]pyridazine-3-carbonitrile] | 9 | 111 |
| N#CCNc1cc(-c2ccc3cc(C#N)cnn23)ncc1-c1nnc(N2CCN(CC3CCN(c4ccc([C@@H]5CCC(=O)NC5=O)cn4)CC3)CC2)s1 (single isomer, unassigned) [Example 132] | 13 | 111 |

Second part, the compound after the results:

| DC50 [nM] | Dmax [%] | SMILES |
| --- | --- | --- |
| 11 | 115 | N#Cc1cnn2c(-c3cc(NC4CCOCC4)c(-c4nnc(N5CC6(CCN(CC7CCN(c8ccc(C9CCC(=O)NC9=O)cn8)CC7)CC6)C5)s4)cn3)ccc2c1 (racemic) [Example 88, rac-7-[5-(5-{7-[(1-{5-[(3R)-2,6-dioxopiperidin-3-yl]pyridin-2-yl}piperidin-4-yl)methyl]-2,7-diazaspiro[3.5]nonan-2-yl}-1,3,4-thiadiazol-2-yl)-4-[(oxan-4-yl)amino]pyridin-2-yl]pyrrolo[1,2-b]pyridazine-3-carbonitrile] |
| 77 | 83 | N#Cc1cnn2c(-c3cc(NC4CCOCC4)c(-c4nnc(C56CCC(CN7CCC(Oc8ccc(C9CCC(=O)NC9=O)cn8)CC7)(CC5)CC6)s4)cn3)ccc2c1 (racemic) [Example 24, rac-7-{5-[5-(4-{[4-({5-[(3R)-2,6-dioxopiperidin-3-yl]pyridin-2-yl}oxy)piperidin-1-yl]methyl}bicyclo[2.2.2]octan-1-yl)-1,3,4-thiadiazol-2-yl]-4-[(oxan-4-yl)amino]pyridin-2-yl}pyrrolo[1,2-b]pyridazine-3-carbonitrile] |
| 71 | 104 | N#Cc1cnn2c(-c3cc(NC4CCOCC4)c(-c4nnc(C56CCC(C(=O)N7CCc8cc(C9CCC(=O)NC9=O)ccc8C7)(CC5)CC6)s4)cn3)ccc2c1 (racemic) [Example 57, rac-7-{5-[5-(4-{6-[(3R)-2,6-dioxopiperidin-3-yl]-1,2,3,4-tetrahydroisoquinoline-2-carbonyl}bicyclo[2.2.2]octan-1-yl)-1,3,4-thiadiazol-2-yl]-4-[(oxan-4-yl)amino]pyridin-2-yl}pyrrolo[1,2-b]pyridazine-3-carbonitrile] |
| 23 | 71 | N#Cc1cnn2c(-c3cc(NC4CCOCC4)c(-c4nnc(N5CCN(C6CC7(CCN(c8ccc(C9CCC(=O)NC9=O)cn8)CC7)C6)CC5)s4)cn3)ccc2c1 (racemic) [Example 74, rac-7-(5-{5-[4-(7-{5-[(3R)-2,6-dioxopiperidin-3-yl]pyridin-2-yl}-7-azaspiro[3.5]nonan-2-yl)piperazin-1-yl]-1,3,4-thiadiazol-2-yl}-4-[(oxan-4-yl)amino]pyridin-2-yl)pyrrolo[1,2-b]pyridazine-3-carbonitrile] |
| 8 | 110 | N#Cc1cnn2c(-c3cc(NC4CCOCC4)c(-c4nnc(N5CCN(C(=O)CN6CCc7cc(C8CCC(=O)NC8=O)ccc7C6)CC5)s4)cn3)ccc2c1 (racemic) [Example 66, rac-7-(5-{5-[4-(2-{6-[(3R)-2,6-dioxopiperidin-3-yl]-1,2,3,4-tetrahydroisoquinolin-2-yl}acetyl)piperazin-1-yl]-1,3,4-thiadiazol-2-yl}-4-[(oxan-4-yl)amino]pyridin-2-yl)pyrrolo[1,2-b]pyridazine-3-carbonitrile] |
| 160 | 53 | N#Cc1cnn2c(-c3cc(NC4CCOCC4)c(-c4nnc(N5CCN(CC6CCN(c7ccc([C@@H]8CCC(=O)NC8=O)cn7)CC6)CC5)s4)cn3)ccc2c1 (single isomer, unassigned) [Example 31] |
| 65 | 111 | N#Cc1cnn2c(-c3cc(NC4CCOCC4)c(-c4nnc(N5CCN(C[C@H]6CC[C@H](Oc7ccc([C@@H]8CCC(=O)NC8=O)cn7)CC6)CC5)s4)cn3)ccc2c1 (racemic) [Example 107, 7-{4-[(oxan-4-yl)amino]-5-[5-(4-{[(1r,4r)-4-({5-[(3RS)-2,6-dioxopiperidin-3-yl]pyridin-2-yl}oxy)cyclohexyl]methyl}piperazin-1-yl)-1,3,4-thiadiazol-2-yl]pyridin-2-yl}pyrrolo[1,2-b]pyridazine-3-carbonitrile] |
| 15 | 60 | N#Cc1cnn2c(-c3cc(NC4CCOCC4)c(-c4nnc(N5CCN(C(=O)CN6CCN(c7cc(C8CCC(=O)NC8=O)ccn7)CC6)CC5)s4)cn3)ccc2c1 (racemic) [Example 15, rac-7-[5-(5-{4-[2-(4-{4-[(3R)-2,6-dioxopiperidin-3-yl]pyridin-2-yl}piperazin-1-yl)acetyl]piperazin-1-yl}-1,3,4-thiadiazol-2-yl)-4-[(oxan-4-yl)amino]pyridin-2-yl]pyrrolo[1,2-b]pyridazine-3-carbonitrile] |
